Assay results from paper PMC6470795 (Molecules, 2019).
Read-outs that look alike come from different tables or passages of the source.

Columns and labels:
[1] = system: hepatic carcinoma 97H cells; test: MTT antiproliferative assay, 97H cells; assay type: cell-based, human; details: 97H cells, MTT, 48 h, read-out: IC50 of Against 97H cells
From the text: The cell lines, 97H (human liver cancer cell), Pc9 (human non-small cell lung cancer), HELA (human epithelial cervical cancer cell line), SJSA1 (human osteosarcoma cells), LO2 (human normal liver cells), and HLF (human embryonic lung fibroblast), used in this study were purchased from the Guangzhou ginny ou Biotechnology Co. Ltd. (Guangzhou, China). Cell lines were cultivated in Dulbecco’s Modified Eagle Medium (DMEM) containing 10% (v/v) heat-inactivated fetal bovine serum (FBS), 100 units/mL penicillin, and 100 μg/mL streptomycin.
For the cytotoxicity assay, the cells grown in the logarithmic phase were seeded into 96-well plates (5 × 10^3 cells/well) for 24 h, and then exposed to different concentrations of the test compounds for 48 h. After the attached cells had been incubated with 5 mg/mL MTT (Sigma, St. Louis, MO, USA) for another 4 h, the suspension was discarded and subsequently the dark blue crystals (formazan) were solubilized in dimethyl sulfoxide (DMSO). Then, the absorbance was measured at 570 nm using a multifunction microplate reader (Molecular Devices, Flex Station 3) (Thermo Fisher Scientific, San Jose, CA, USA), and each experiment was performed at least in triplicate.

SMILES	IC50 ([1]; Homo sapiens) [nM]	IC50 [1] [nM]	melting point [°C]
CC(c1cccc(-c2ncc(OCCN3CCOCC3)cn2)c1)n1cc(-c2cccc(C#N)c2)cnc1=O (stereo not drawn) [Compound 31f, 5-(3-cyanophenyl)-1-(1-(3-(5-(2-morpholinoethoxy)pyrimidin-2-yl)phenyl)ethyl)pyrimidin-2(1H)-one]	248 ± 34		
CN(C)CCCSc1cnc(-c2cccc(Cn3cc(-c4cncnc4)cc(F)c3=O)c2)nc1 [Compound 36c, 1-(3-(5-((3-(dimethylamino)propyl)thio)pyrimidin-2-yl)benzyl)-3-fluoro-5-(pyrimidin-5-yl)pyridin-2(1H)-one]	671 ± 56		
CN(C)CCCOc1cnc(-c2cccc(Cn3cc(-c4cccc(C#N)c4)cnc3=O)c2)nc1 [Compound 22, 5-(3-cyanophenyl)-1-(3-(5-(3-(dimethylamino)propoxy)pyrimidin-2-yl)benzyl)pyrimidin-2(1H)-one]	559 ± 18		
CN(C)CCCSc1cnc(-c2cccc(Cn3cc(-c4cccc(C#N)c4)cnc3=O)c2)nc1 [Compound 18, 5-(3-cyanophenyl)-1-(3-(5-((3-(dimethylamino)propyl)thio)pyrimidin-2-yl)benzyl)pyrimidin-2(1H)-one]	360 to 550	443 ± 4	
CN1CCC(COc2cnc(-c3cccc(Cn4cc(-c5cccc(C#N)c5)cnc4=O)c3)nc2)CC1 [Compound 25, 5-(3-cyanophenyl)-1-(3-(5-((1-methylpiperidin-4-yl)methoxy)pyrimidin-2-yl)benzyl)pyrimidin-2(1H)-one]	360 to 550	361 ± 12	116.7 to 118.2
CC(c1cccc(-c2ncc(SCCCN(C)C)cn2)c1)n1cc(-c2cccc(C#N)c2)cc(F)c1=O (stereo not drawn) [Compound 39, 5-(3-cyanophenyl)-1-(1-(3-(5-((3-(dimethylamino)propyl)thio)pyrimidin-2-yl)phenyl)ethyl)-3-fluoropyridin-2(1H)-one]	206 ± 13		
CN(C)CCCSc1cnc(-c2cccc(Cn3cc(-c4cc(F)cc(F)c4)ncc3=O)c2)nc1 [Compound 11b, 5-(3,5-difluorophenyl)-1-(3-(5-((3-(dimethylamino)propyl)thio)pyrimidin-2-yl)benzyl)pyrazin-2(1H)-one]	9100 ± 670		143.7 to 145.2
CC(c1cccc(-c2ncc(OCCCN(C)C)cn2)c1)n1cc(-c2cccc(C#N)c2)cnc1=O (stereo not drawn) [Compound 31c, 5-(3-cyanophenyl)-1-(1-(3-(5-(3-(dimethylamino)propoxy)pyrimidin-2-yl)phenyl)ethyl)pyrimidin-2(1H)-one]	216 ± 87		68.3 to 69.9
CC(c1cccc(-c2ncc(SCCCN(C)C)cn2)c1)n1cc(-c2cccc(C#N)c2)cnc1=O (stereo not drawn) [Compound 31b, 5-(3-cyanophenyl)-1-(1-(3-(5-((3-(dimethylamino)propyl)thio)pyrimidin-2-yl)phenyl)ethyl)pyrimidin-2(1H)-one]	149 ± 12		
CC(c1cccc(-c2ncc(SCCN(C)C)cn2)c1)n1cc(-c2cccc(C#N)c2)cnc1=O (stereo not drawn) [Compound 31a, 5-(3-cyanophenyl)-1-(1-(3-(5-((2-(dimethylamino)ethyl)thio)pyrimidin-2-yl)phenyl)ethyl)pyrimidin-2(1H)-one]	186 ± 7		
CC(c1cccc(-c2ncc(OCC3CCN(C)CC3)cn2)c1)n1cc(-c2cc(F)cc(F)c2)cnc1=O (stereo not drawn) [Compound 31g, 5-(3,5-difluorophenyl)-1-(1-(3-(5-((1-methylpiperidin-4-yl)methoxy)pyrimidin-2-yl)phenyl)ethyl)pyrimidin-2(1H)-one]	332 ± 44		86.9 to 88.6
CN(C)CCCSc1cnc(-c2cccc(Cn3cc(-c4cncc(F)c4)cc(F)c3=O)c2)nc1 [Compound 36b, 1-(3-(5-((3-(dimethylamino)propyl)thio)pyrimidin-2-yl)benzyl)-5,5′-difluoro-[3,3′-bipyridin]-6(1H)-one]	3810 ± 45		128.3 to 129.9
C[C@H](c1cccc(-c2ncc(OCC3CCN(C)CC3)cn2)c1)n1cc(-c2cccc(C#N)c2)cnc1=O [(R)-31e]	18 ± 6		
C[C@@H](c1cccc(-c2ncc(OCC3CCN(C)CC3)cn2)c1)n1cc(-c2cccc(C#N)c2)cnc1=O [(S)-31e]	1830 ± 26		
